Experimental data: patent US6069143A, “Fibrinogen receptor antagonists” (SmithKline Beecham Corporation, priority 1996, dated 2000)

Molecular target: T1, fibrinogen receptor (GPIIb-IIIa) (Homo sapiens, UniProt P05106+P08514)
T1 construct: Ten units of outdated, washed human platelets (obtained from Red Cross) were lyzed; from tissue; host or cells: outdated human platelets (Red Cross); GPIIb-IIIa purified on lentil lectin sepharose and incorporated in liposomes
Test: Competitive binding to GPIIb-IIIa ([3H]-SK&F-107260 displacement, GPIIb-IIIa liposomes)
Settings: purified human platelet GPIIb-IIIa in liposomes; 4.5 nM [3H]-SK&F-107260; Ki from IC50 by Cheng and Prusoff equation; read-out: Ki, inhibition of [3H]-SK&F 107260 binding
Description: Ten units of outdated, washed human platelets (obtained from Red Cross) were lyzed by gentle stirring in 3% octylglucoside, 20 mM Tris-HCl, pH 7.4, 140 mM NaCl, 2 mM CaCl2 at 4° C. for 2 h. The lysate was centrifuged at 100,000 g for 1 h. The supernatant obtained was applied to a 5 mL lentil lectin sepharose 4B column (E.Y. Labs) preequilibrated with 20 mM Tris-HCl, pH 7.4, 100 mM NaCl, 2 mM CaCl2, 1% octylglucoside (buffer A). After 2 h incubation, the column was washed with 50 mL cold buffer A. The lectin-retained GPIIb-IIIa was eluted with buffer A containing 10% dextrose. All procedures were performed at 4° C. The GPIIb-IIIa obtained was >95% pure as shown by SDS polyacrylamide gel electrophoresis. […]
The binding to the fibrinogen receptor (GPIIb-IIIa) was assayed by an indirect competitive binding method using [^3 H]-SK&F-107260 as an RGD-type ligand. […] Bound radioactivity remaining on the filters was counted in 1.5 mL Ready Solve (Beckman Instruments, Fullerton, Calif.) in a Beckman Liquid Scintillation Counter (Model LS6800), with 40% efficiency. Nonspecific binding was determined in the presence of 2 μg unlabeled SK&F-107260 and was consistently less than 0.14% of the total radioactivity added to the samples. […]
Competition binding data were analyzed by a nonlinear least-squares curve fitting procedure. […]

T1 sequence (P08514 32-887 limits assumed): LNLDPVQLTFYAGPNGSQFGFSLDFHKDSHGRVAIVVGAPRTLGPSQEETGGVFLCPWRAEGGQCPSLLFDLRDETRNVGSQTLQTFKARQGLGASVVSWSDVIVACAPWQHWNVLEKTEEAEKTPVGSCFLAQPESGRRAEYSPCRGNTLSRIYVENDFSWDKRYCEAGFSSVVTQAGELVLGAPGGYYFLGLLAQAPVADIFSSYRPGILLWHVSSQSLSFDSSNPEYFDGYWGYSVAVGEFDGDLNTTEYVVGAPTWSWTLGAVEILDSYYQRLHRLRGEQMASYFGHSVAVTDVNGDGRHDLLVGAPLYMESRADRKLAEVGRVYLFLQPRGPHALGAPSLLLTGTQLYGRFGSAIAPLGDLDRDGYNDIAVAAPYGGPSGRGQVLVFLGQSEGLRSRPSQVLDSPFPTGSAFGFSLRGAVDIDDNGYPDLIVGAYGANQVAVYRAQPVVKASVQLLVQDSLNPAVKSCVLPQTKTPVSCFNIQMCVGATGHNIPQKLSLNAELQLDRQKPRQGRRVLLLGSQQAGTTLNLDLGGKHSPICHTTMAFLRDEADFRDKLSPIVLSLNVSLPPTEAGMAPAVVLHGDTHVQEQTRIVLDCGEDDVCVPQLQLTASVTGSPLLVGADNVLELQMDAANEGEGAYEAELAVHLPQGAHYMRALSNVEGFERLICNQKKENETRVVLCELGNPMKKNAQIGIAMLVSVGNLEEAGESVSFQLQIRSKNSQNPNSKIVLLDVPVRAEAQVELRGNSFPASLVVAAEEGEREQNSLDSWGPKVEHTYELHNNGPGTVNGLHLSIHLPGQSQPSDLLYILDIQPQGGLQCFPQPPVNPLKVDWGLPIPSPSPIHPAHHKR
T1 sequence (P08514 891-1039 limits assumed): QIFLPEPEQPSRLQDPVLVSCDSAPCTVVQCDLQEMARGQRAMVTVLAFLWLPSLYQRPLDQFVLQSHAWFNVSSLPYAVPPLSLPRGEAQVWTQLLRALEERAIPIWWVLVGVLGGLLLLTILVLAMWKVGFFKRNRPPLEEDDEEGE
T1 sequence (P05106 27-788): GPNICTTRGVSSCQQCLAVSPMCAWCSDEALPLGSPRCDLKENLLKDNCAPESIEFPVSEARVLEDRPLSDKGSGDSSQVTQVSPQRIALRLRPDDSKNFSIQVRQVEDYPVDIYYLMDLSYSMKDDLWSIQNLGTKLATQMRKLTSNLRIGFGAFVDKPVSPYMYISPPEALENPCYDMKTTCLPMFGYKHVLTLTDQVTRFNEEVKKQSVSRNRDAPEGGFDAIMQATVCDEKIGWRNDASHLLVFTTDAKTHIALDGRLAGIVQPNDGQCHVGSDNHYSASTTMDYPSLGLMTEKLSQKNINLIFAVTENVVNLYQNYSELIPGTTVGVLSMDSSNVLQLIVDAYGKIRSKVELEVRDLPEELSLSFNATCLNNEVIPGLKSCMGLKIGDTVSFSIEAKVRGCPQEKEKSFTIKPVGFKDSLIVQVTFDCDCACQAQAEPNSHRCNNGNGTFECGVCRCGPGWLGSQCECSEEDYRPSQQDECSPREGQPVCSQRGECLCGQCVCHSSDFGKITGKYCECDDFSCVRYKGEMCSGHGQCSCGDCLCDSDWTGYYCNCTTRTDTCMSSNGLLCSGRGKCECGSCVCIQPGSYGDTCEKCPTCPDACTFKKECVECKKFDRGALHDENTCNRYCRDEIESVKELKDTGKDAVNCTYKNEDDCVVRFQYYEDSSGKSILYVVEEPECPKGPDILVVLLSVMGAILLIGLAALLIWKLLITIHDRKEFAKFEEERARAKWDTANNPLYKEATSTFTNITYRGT

Ki: ~5 nM
SMILES: O=C(O)CN1CCC(C(=O)Nc2ccc(N3CCNCC3)cc2)CC1 [Example 1, 4-[[[4-(1-piperazinyl)phenyl]amino]carbonyl]-1-piperidineacetic acid]
